Assay results taken from PMC7803423, “Identification of CTL Epitopes on Efflux Pumps of the ATP-Binding Cassette and the Major Facilitator Superfamily of Mycobacterium tuberculosis” (Journal of Immunology Research, 2021).

Experiments:
[1] = tested on: peptide-induced CTLs from HLA-A*02+PPD+ donors; test: IFN-γ ELISPOT of peptide-induced CTLs in vitro; type: cell-based, human; conditions: CTLs induced with peptide-loaded DCs from HLA-A*02+PPD+ donors, day 21; stimulators peptide-loaded T2A2 cells, 18 h
[2] = tested on: peptide-induced CD8+ T cells from HLA-A*02+ PPD+ / PPD− donors; test: Intracellular cytokine IFN-γ staining (ICS) of peptide-induced CTLs in vitro; type: cell-based, human; conditions: for CD8+ IFN-γ+ T cells, PPD+ donors compared with PBS-treated group: n = 3 donors; for CD8+ IFN-γ+ T cells, PPD+ donors compared with PPD− donors: n = 3 donors each, Student's t-test
[3] = target: T1, HLA-A*0201 on T2A2 cells (Homo sapiens, UniProt P04439, D140Y/D185E/D98H/E176V/E277Q/G131W/G231S/I119V/I121R/I166T/I218V/L300P/L318F/N151K/N90K/P208A/P217A/Q86G/Q94H/R138H/R169H/T345S); test: T2A2 cell binding affinity assay; conditions: 50 μg/mL peptide + 3 μg/mL β2-M; for FI (fluorescence index): FI = [MFI of the peptide − MFI of the background]/[MFI of the background], T2A2 cells, 18 h; for MFI: T2A2 cells 1 × 10^6 cells/mL, 37°C 18 h, HLA-A2 antibody BB7.2, flow cytometry, background MFI 131
T1 construct: T2A2 cells (1 × 10^6 cells/mL) resuspended in serum-free IMDM medium were seeded in 24-well plates; endogenous in cells; host or cells: T2A2 cells

[4] = target: T2, peptide/HLA-A*0201 complex on T2A2 cells (Homo sapiens, UniProt P04439, D140Y/D185E/D98H/E176V/E277Q/G131W/G231S/I119V/I121R/I166T/I218V/L300P/L318F/N151K/N90K/P208A/P217A/Q86G/Q94H/R138H/R169H/T345S); test: Peptide/HLA-A*0201 complex stability assay; type: binding; conditions: time for loss of 50% of peptide/HLA-A*0201 complexes stabilized at 0 h, 50 μg/mL peptide, 18 h, brefeldin A 10 μg/mL 1 h, then 0, 2, 4, 6 h at 37°C, flow cytometry
T2 construct: endogenous in cells; host or cells: T2A2 cells
Protocol: The peptide/MHC complex stabilization assays were performed similarly. T2A2 cells were incubated with 50 μg/mL peptides and 3 μg/mL β2-M for 18 h. Then, 10 μg/mL brefeldin A (203729, Sigma, USA) were added in medium for another 1 h, subsequently washed by serum-free IMDM medium and incubated at 37°C for 0, 2, 4, and 6 h. Finally, cells were washed twice, stained with HLA-A2-PE-Cyanine 7 monoclonal antibody, and analyzed by flow cytometer (FACS Calibur, BD Bioscience, USA). DC50 was defined as an estimate of the time required for the loss of 50% of the peptide/HLA-A^∗0201 complexes stabilized at time 0 h.

[5] = tested on: IFN-γ; test: Serum IFN-γ ELISA after peptide immunization; type: in vivo, HLA-A2.1/K^b transgenic mice; conditions: serum day 11, n = 5
[6] = tested on: CD8+ T cells of splenic lymphocytes; test: ICS assay of restimulated splenic lymphocytes from immunized mice; type: in vivo, HLA-A2.1/K^b transgenic mice; conditions: ICS on day 7 of restimulation, n = 5
[7] = tested on: peptide-pulsed T2A2 cells; test: LDH cytotoxicity assay of peptide-induced CTLs in vitro; type: cell-based, human; conditions: E : T ratio 50 : 1, CTLs from HLA-A*02+PPD+ donors, T2A2 cells pulsed with corresponding peptide, 4 h, n = 4
[8] = tested on: peptide-loaded T2A2 cells; test: LDH lysis assay with CTLs from immunized mice; type: in vivo, HLA-A2.1/K^b transgenic mice; conditions: peptide-loaded T2A2 target cells, n = 5
[9] = CFA day -14 then peptide in IFA

Row | Sequence | FI (fluorescence index) [3] | MFI [3] | DC50 [4] [h] | other results
1 | VLAADAVFV [Rv2459c-p469, predicted HLA-A2-restricted 9-mer peptide … from MTB efflux pump antigen Rv2459c] | 2.36 | 440 | >4 | IFN-γ secretion of peptide-induced CTLs (ELISPOT) [1]: secreted IFN-γ most potently; CD8+ IFN-γ+ T cells, PPD+ donors compared with PBS-treated group [2]: more CD8^+ IFN-γ^+ T cells than the PBS-treated group; CD8+ IFN-γ+ T cells, PPD+ donors compared with PPD− donors [2]: significantly more CD8^+ IFN-γ^+ T cells
2 | VLATGVTLV [Rv2209-p158, predicted HLA-A2-restricted 9-mer peptide … from MTB efflux pump antigen Rv2209] | 2.54 | 462 | >4 | 
3 | RLTEELAWV [Rv2477c-p265, predicted HLA-A2-restricted 9-mer peptide … from MTB efflux pump antigen Rv2477c] | 1.36 | 315 |  | 
4 | TLFKTIVGL [Rv2477c-p362, predicted HLA-A2-restricted 9-mer peptide … from MTB efflux pump antigen Rv2477c] | 1.72 | 367 | > 2 | 
5 | LLDEPSSGL [Rv1218c-p158, predicted HLA-A2-restricted 9-mer peptide … from MTB efflux pump antigen Rv1218c] | 2.35 | 439 | >4 | IFN-γ secretion of peptide-induced CTLs (ELISPOT) [1]: secreted IFN-γ most potently; CD8+ IFN-γ+ T cells, PPD+ donors compared with PPD− donors [2]: significantly more CD8^+ IFN-γ^+ T cells
6 | LLDEPTSAL [Rv0933-p186, predicted HLA-A2-restricted 9-mer peptide … from MTB efflux pump antigen Rv0933] | 2.52 | 465 | <2 | 
7 | ILIGETIKI [COX-2-p321, reference compound] | 2.11 | 408 | >4 | 
8 | YLLGGTVVV [Rv1877-p71, predicted HLA-A2-restricted 9-mer peptide … from MTB efflux pump antigen Rv1877] | 2.17 | 419 | >2 | 
9 | RLGNVVVEV [Rv2477c-p316, predicted HLA-A2-restricted 9-mer peptide … from MTB efflux pump antigen Rv2477c] | 1.58 | 348 | >2 | 
10 | SLVSQPPTL [Rv1218c-p280, predicted HLA-A2-restricted 9-mer peptide … from MTB efflux pump antigen Rv1218c] | 1.62 | 353 | <2 | 
11 | SLADRLTVI [Rv0933-p208, predicted HLA-A2-restricted 9-mer peptide … from MTB efflux pump antigen Rv0933] | 2.59 | 479 | <2 | 
12 | LMMPQTVTV [Rv2994-p223, predicted HLA-A2-restricted 9-mer peptide … from MTB efflux pump antigen Rv2994] | 2.28 | 430 | <2 | 
13 | ALDGLDLTV [Rv1218c-p24] | 3.32 | 569 | >4 | IFN-γ secretion of peptide-induced CTLs (ELISPOT) [1]: secreted IFN-γ most potently; serum IFN-γ concentration (ELISA), CFA preimmunization ([5]; CFA 200 μL s.c. day -14, then peptide 100 μg/mice + T helper epitope 140 μg/mice in IFA days 0, 5, 10): 1817.0 pg/mL; serum IFN-γ concentration (ELISA), IFA ([5]; peptide 100 μg/mice + T helper epitope 140 μg/mice in IFA 1 : 1, s.c. base of tail, days 0, 5, 10): 363 pg/mL; CD8+ IFN-γ+ T cells compared with NS group, CFA preimmunization [6, 9]: produced more CD8^+ IFN-γ^+ T cells than the NS group; CD8+ IFN-γ+ T cells compared with NS group, IFA ([6]; IFA immunization): induced more CD8^+IFN-γ^+ T cells than the NS group; CD8+ IFN-γ+ T cells, PPD+ donors compared with PBS-treated group [2]: more CD8^+ IFN-γ^+ T cells than the PBS-treated group; CD8+ IFN-γ+ T cells, PPD+ donors compared with PPD− donors [2]: significantly more CD8^+ IFN-γ^+ T cells; lysis rate [7]: 88.6%; lysis rate, CFA preimmunization, E : T 40 : 1 [8, 9]: 24.6%; lysis rate, CFA preimmunization, E : T 80 : 1 [8, 9]: 41.2%; lysis rate, IFA, E : T 80 : 1 ([8]; IFA immunization): 26.4%
14 | WMSIGVFSV [Rv1819c-p122, predicted HLA-A2-restricted 9-mer peptide … from MTB efflux pump antigen Rv1819c] | 0.35 | 177 |  | 
15 | ALCEKVTII [Rv1218c-p200, predicted HLA-A2-restricted 9-mer peptide … from MTB efflux pump antigen Rv1218c] | 1.75 | 366 | > 4 | DC50 ([4]; listed as Rv1218c-P200): >4 h
16 | LLLSKPDLL [Rv2477c-p173, predicted HLA-A2-restricted 9-mer peptide … from MTB efflux pump antigen Rv2477c] | 1.15 | 272 |  | 
17 | GLDPLMENV [Rv1218c-p165, predicted HLA-A2-restricted 9-mer peptide … from MTB efflux pump antigen Rv1218c] | 2.6 | 479 | > 2 | 
